Here are results for one compound from patent publication US20190209581A1, “DOSAGE REGIMEN FOR TREATMENT OF SOLID TUMORS” (Eli Lilly and Company, priority 2016, published 2019).

The subject of one assay is N1ICD (cleaved Notch1). Put plainly: N1ICD analysis (ELISA) in xenograft tumors. Type of assay: in vivo, human. The settings on record: for % N1ICD Inhibition: 10 mg/kg (Q2Dx7), 11-days OFF. The protocol: To evaluate in vivo efficacy and effect of 4,4,4-Trifluoro-N-[(1S)-2-[[(7S)-5-(2-hydroxyethyl)-6-oxo-7H-pyrido[2,3-d][3]benzazepin-7-yl]amino]-1-methyl-2-oxo-ethyl]butanamide on inhibition of Notch processing pharmacodynamics (PD), several cell lines- and patient-derived xenograft models are used. A2780 is a human ovarian cell line (Sigma-Aldrich, No. 93112519); SW480 is a human colorectal cell line (ATCC No. CCL-228); HCT 116 is a human colorectal cell line (ATCC No. CCL-247); U-87 MG is a human glioblastoma cell line (ATCC No. HTB-14); A375 is a human malignant melanoma cell line (ATCC No. CRL-1619); K-562 is a human chronic myelogenous leukemia (CML) cell line characterized by the presence of a fusion transcript comprised of the Bcr and Abl1 genes (ATCC No. CCL-243); Jurkat; HEL 92.1.7 is a human erythroleukemia cell line (ATCC No. TIB-180). Each of the cell lines are obtained from the American Type Culture Collection (ATCC) at the ATCC number stated, except the A2780 cell line which is obtained from Sigma-Aldrich at the stated catalog number. The cells are grown in their respective, recommended culture media at 37° C. in 5% CO2 with humidity in the atmosphere. A2780 (2×10^6), SW480 (6×10^6), HCT 116 (6×10^6), U-87 MG (6×10^6), and A-375 (10×10^6) cells in a 1:1 matrigel mix (0.2 mL volume) are implanted by subcutaneous injection in the hind leg of 6-8 weeks of age athymic nude female mice (Harlan Laboratories). K-562 (6×10^6) cells in a 1:1 matrigel mix (0.2 mL volume) are implanted by subcutaneous injection in the hind leg of 6-8 weeks of age CD1 nμ/nμ female mice (Charles River Laboratories). HEL 92.1.7 (7×10^6) in a 1:1 matrigel mix (0.2 mL volume) are implanted by subcutaneous injection in the hind leg of 6-8 weeks of age CB17 severely combined immune deficient female mice (Taconic Farms). Patient-derived tumors are minced into 1-2 mm pieces and mixed with matrigel (1:1) in 0.2 ml volume and implanted by subcutaneous injection in the hind leg of 6-8 weeks of age athymic nude female mice (Harlan Laboratories). Patients-derived tumor models include: human colon carcinoma (EL2144), human triple negative invasive ductal breast carcinoma (EL1997), human colon carcinoma (EL1989, EL 1986), and human glioblastoma (EL 2056) with samples obtained after patient consent and hospital approval from IU Health, Methodist Hospital, Indianapolis, Ind., USA 46206. A total of 7 to 10 mice are used for each group. Just before implantation for A2780, SW480, HEL 92.1.7, A-375, K-562, and patient-derived tumor models, animals are irradiated (450 Total Body Irradiation). Mice are fed ad libitum on normal chow. Treatment is initiated with oral administration (gavage) of compound or vehicle (1% Na-CMC in 0.25% Tween®-80) in 0.2 mL volume when tumor size reached to 150±50 mm^3. At designated time points following treatment, animals are sacrificed by CO2 asphyxiation and cervical dislocation. Tumors are removed and used for PD response analysis. Tumor growth and body weight are monitored over time to evaluate efficacy and signs of toxicity. Bidimensional measurements of tumors are performed twice a week and tumor volumes are calculated based on the following formula: (Tumor Volume)=[(L)×(W2)×(Π/6)] where L is mid-axis length and W is mid-axis width. Tumor volume data are transformed to a log scale to equalize variance across time and treatment groups. The log volume data are analyzed with a two-way repeated measures analysis of variance by time and treatment using the MIXED™ procedures in SAS™ software (version 8.2). The correlation model for the repeated measures is spatial power. Treated groups are compared to the control group at each time point. The MIXED™ procedure is also used separately for each treatment group to calculate adjusted means and standard errors at each time point. Both analyses account for the autocorrelation within each animal and the loss of data that occurs when animals with large tumors are removed from the study early. […]

The subject of assay [1] is SW480 human colorectal cell line. Put plainly: Tumor growth inhibition, SW480 xenograft. The format is in vivo. The settings on record: SW480 in mice, oral 8 mg/kg, (Mon, Wed, Fri)x5; p <0.0001. Here is the method:
To evaluate in vivo efficacy and effect of 4,4,4-Trifluoro-N-[(1S)-2-[[(7S)-5-(2-hydroxyethyl)-6-oxo-7H-pyrido[2,3-d][3]benzazepin-7-yl]amino]-1-methyl-2-oxo-ethyl]butanamide on inhibition of Notch processing pharmacodynamics (PD), several cell lines- and patient-derived xenograft models are used. A2780 is a human ovarian cell line (Sigma-Aldrich, No. 93112519); SW480 is a human colorectal cell line (ATCC No. CCL-228); HCT 116 is a human colorectal cell line (ATCC No. CCL-247); U-87 MG is a human glioblastoma cell line (ATCC No. HTB-14); A375 is a human malignant melanoma cell line (ATCC No. CRL-1619); K-562 is a human chronic myelogenous leukemia (CML) cell line characterized by the presence of a fusion transcript comprised of the Bcr and Abl1 genes (ATCC No. CCL-243); Jurkat; HEL 92.1.7 is a human erythroleukemia cell line (ATCC No. TIB-180). […] Tumor growth and body weight are monitored over time to evaluate efficacy and signs of toxicity. Bidimensional measurements of tumors are performed twice a week and tumor volumes are calculated based on the following formula: (Tumor Volume)=[(L)×(W2)×(Π/6)] where L is mid-axis length and W is mid-axis width. […] The log volume data are analyzed with a two-way repeated measures analysis of variance by time and treatment using the MIXED™ procedures in SAS™ software (version 8.2). […]

[2] abbreviates: Homo sapiens, A2780, 4 h, A2780 tumors 4 hours after last dose, Q2Dx13, p <0.0001.

One may read the inhibition as the drop in the measured response relative to a control, in per cent.

As for `C[C@H](NC(=O)CCC(F)(F)F)C(=O)N[C@@H]1C(=O)N(CCO)c2ncccc2-c2ccccc21` [Compound 1, 4,4,4-trifluoro-N-[(1S)-2-[[(7S)-5-(2-hydroxyethyl)-6-oxo-7H-pyrido[2,3-d][3]benzazepin-7-yl]amino]-1-methyl-2-oxo-ethyl]butanamide], the “% N1ICD Inhibition” value was 79.2 (<0.0001) % in the assay with N1ICD (cleaved Notch1) (EL1989 tumors 4 hours after last dose, 8 mg/kg (Mon, Wed, Fri)x3, p <0.0001) and 67.9 (<0.0001) % with N1ICD (cleaved Notch1) (EL1997 tumors 4 hours after last dose, 8 mg/kg (Mon, Wed, Fri)x4, p <0.0001). Moreover, the inhibition at 8 mg/kg in the assay on N1ICD (cleaved Notch1) (Homo sapiens, 4 h, EL1986 tumors 4 hours after last dose, (Mon, Wed, Fri)x5, p <0.0001) was 84.9%; with N1ICD (cleaved Notch1) (Homo sapiens, 4 h, EL2056 tumors 4 hours after last dose, (Mon, Wed, Fri)x5, p <0.0001), 83.5%; in the assay on N1ICD (cleaved Notch1) (setting [2]), 71.7%; in the assay with N1ICD (cleaved Notch1) (Homo sapiens, A-375, 4 h, A-375 tumors 4 hours after last dose, (Mon, Wed, Fri)x4, p <0.0001), 77.5%; in the assay with N1ICD (cleaved Notch1) (Homo sapiens, HCT-116, 4 h, HCT 116 tumors 4 hours after last dose, (Mon, Wed, Fri)x4, p =0.0005), 73%; in the assay on N1ICD (cleaved Notch1) (Homo sapiens, HEL 92.1.7, 4 h, HEL 92.1.7 tumors 4 hours after last dose, Q2dx14, p <0.0001), 56.7%. The inhibition at 8 mg/kg was determined as 47.6% in the assay on N1ICD (cleaved Notch1) (Homo sapiens, K562, 4 h, K-562 tumors 4 hours after last dose, (Mon, Wed, Fri)x4, p <0.0001); 72.5% in the assay on N1ICD (cleaved Notch1) (Homo sapiens, SW480, 4 h, SW480 tumors 4 hours after last dose, (Mon, Wed, Fri)x5, p =0.0002); 87.8% in the assay with N1ICD (cleaved Notch1) (Homo sapiens, U-87 MG, 4 h, U-87 MG tumors 4 hours after last dose, (Mon, Wed, Fri)x4, p <0.0001). Moreover, at 1.5 mg/kg the inhibition with N1ICD (cleaved Notch1) (Homo sapiens, A2780, 4 h, A2780 tumors 4 hours after last dose, 1.5 mg/kg, QDx26, p <0.0001) was 59%. Also, the inhibition at 3 mg/kg amounted to 50.7% with N1ICD (cleaved Notch1) (Homo sapiens, A2780, 4 h, A2780 tumors 4 hours after last dose, (BID)QDx7 + (BID)Q2Dx7, p 0.0004); 58.6% in the assay with N1ICD (cleaved Notch1) (setting [2]); 62.8% with N1ICD (cleaved Notch1) (Homo sapiens, A2780, 4 h, A2780 tumors 4 hours after last dose, QDx21, p <0.0001). In the assay on N1ICD (cleaved Notch1) (Homo sapiens, A2780, 4 h, A2780 tumors 4 hours after last dose, 6 mg/kg, Q2Dx13, p <0.0001), the inhibition at 6 mg/kg turned out to be 60.7%. This compound came in with an inhibition at 7 mg/kg in the assay with N1ICD (cleaved Notch1) (Homo sapiens, A2780, 4 h, A2780 tumors 4 hours after last dose, 7 mg/kg, Q2Dx13, p <0.0001) of 65.9%. For the same compound, the inhibition at 10 mg/kg in the assay with N1ICD (cleaved Notch1) (Homo sapiens, A2780, 4 h, A2780 tumors 4 hours after last dose, Q2Dx11, p <0.0001) amounted to 68.5%; in the assay on N1ICD (cleaved Notch1) (setting [2]), 74.8%; in the assay on N1ICD (cleaved Notch1) (Homo sapiens, A2780, 4 h, A2780 tumors 4 hours after last dose, Q3Dx8, p <0.0001), 55.3%. In assay [1], the “% TGI” value is given as 61.00 (<0.0001) %.
